Results reported in US20250066287A1, “PHASE CHANGE AROMATIC AZO COMPOUNDS, METHOD OF MANUFACTURE, AND USE AS HOMOGENOUS CATALYST” (priority 2023, published 2025).
“And” between values parts separate entries of the source, which are not always exact repeats. Identical values can stand only once. Like-named read-outs stand apart in the source and are kept apart here.

Legend:
[1] = Absorption coefficient of reactants, products and catalysts (UV-Vis); format: physicochemical
Experimental: Ultraviolet-visible (UV-Vis) absorption spectra were obtained with a Cary 50 Bio UV-Vis spectrophotometer in a UV Quartz cuvette with a path length of 10 mm. Compounds were dissolved in solvents at a concentration of 0.0125 mg/ml unless otherwise specified. The UV-Vis absorption was first recorded in dark for 5 min, then samples were irradiated with a specified wavelength until no change in their absorbance was observed. Samples were irradiated with Thorlabs LEDs: M340L4 (340 nm, 2.22 μW/mm^2, 60 mW), M430L4 (430 nm, 35.3 μW/mm^2, 600 mW). […]

[2] = Photoswitching between E and Z (UV-vis, photostationary state); format: physicochemical; details: dilute solution; compound 1 in acetonitrile, compound 2 in methanol
Experimental: To find solvents in which the ratio between the maximum concentrations of Z and E isomers at the respective photostationary state (PSS) (i.e., r=[Z]max/[E]max) is the greatest, a solvent screening test for each compound was performed (FIGS. 21-24).
Ultraviolet-visible (UV-Vis) absorption spectra were obtained with a Cary 50 Bio UV-Vis spectrophotometer in a UV Quartz cuvette with a path length of 10 mm. Compounds were dissolved in solvents at a concentration of 0.0125 mg/ml unless otherwise specified. The UV-Vis absorption was first recorded in dark for 5 min, then samples were irradiated with a specified wavelength until no change in their absorbance was observed. Samples were irradiated with Thorlabs LEDs: M340L4 (340 nm, 2.22 μW/mm^2, 60 mW), M430L4 (430 nm, 35.3 μW/mm^2, 600 mW).

[3] = Kinetic tests of Henry reaction; details: for product yield: pre-activated Z, 24 hours; for rate constant kZ: pre-activated soluble Z
[4] = Thermal reversion kinetics measurements (Z-to-E); format: physicochemical; details: 1 in MeCN, 2 in MeOH; for τ1/2 (thermal half-life of Z isomer): Z-to-E thermal reversion at 298 K (room temperature); for ΔG^‡ / ΔH^‡ / ΔS‡: thermal isomerization of Z isomers at 298 K
Experimental: Thermal reversion kinetics measurements. The thermal half-life of compounds 1 and 2 were determined by following a reported procedure (G. D. Han, et all., J. Mater. Chem. A 2016, 4, 16157-16165). A solution of compounds 1 or 2 (˜1.7×10^−5 M) were prepared in MeCN and MeOH, respectively, then irradiated at 340 nm to obtain a Z-rich solution at photostationary state (PSS), which was then heated at three different elevated temperatures (compound 1: 333 K, 338 K, 343 K; compound 2: 318 K, 323 K, 328 K) in dark.

[5] = Quantification of solubility of E and Z isomers in select solvents; details: for Isomer (% E): saturated solution after 340 nm irradiation
Experimental: Quantification of solubility. […] The mixtures were sonicated for 5 min. The obtained suspensions were filtered with a PTFE filter to remove the excess solids. The solvents in clear filtrates were removed using a rotary evaporator and the solutes were dried under vacuum overnight.
wherein [Z]max and [E]max are the maximum concentration of the Z-isomer and the E-isomer, respectively.

[6] = Michael addition in acetonitrile; in 10 hours
Experimental: For compound 1: To a solution of trans-β-nitrostyrene (11.1 mg, 7.5 μmol) and acetylacetone (7.6 mg, 7.5 μmol) in MeCN (0.25 mL) was added either insoluble E isomer or pre-activated Z isomer of compound 1 (5.4 mg, 0.75 μmol). Three identical samples were prepared. 0.2 mL of the solution was taken to check the product yield via ^1H NMR at each time point.

[7] = Light-induced precipitation of catalysts from pristine solvent; format: physicochemical; details: within 10 min of 430 nm irradiation; 1 in acetonitrile, 2 in methanol
Experimental: FIG. 6 and FIG. 25 illustrate the efficiencies of 430 nm induced catalyst precipitation and recovery for compounds 1 and 2, which were obtained by weighing the filtered precipitates after irradiation. […] The full recovery of the catalysts is limited by the PSS ratios of compounds at 430 nm (82% for 1- E and 84% for 2-E).
Light-induced precipitation of catalysts. To determine light-induced precipitation of catalysts, 44 mg of compound 1 and 34 mg of compound 2 were added to 2 mL of acetonitrile and methanol, respectively. The suspensions were irradiated at 340 nm overnight to obtain clear Z solutions. Then, the solutions were irradiated at 430 nm and monitored over 10 min.

[8] = Solvent screening for reversible solubility changes; details: 0.5 mg in 1 mL; irradiation of 340 nm and 430 nm
Experimental: To determine solubility, 0.5 mg of compounds were added to 1 mL of common solvents (1-MeOH, 2-acetonitrile (MeCN), 3-acetone, 4-THF, 5-hexane, 6-EtOAc, 7-DMF, 8-DMSO, and 9-toluene, respectively). […] The samples with suspensions were then stirred overnight under 340 nm irradiation. […] These samples were then stirred for 4 hours under 430 nm to trigger the precipitation of the compounds.

[9] = Cycling tests of Michael addition reaction; details: Michael addition in acetonitrile; after the subsequent two reactions with recovered catalyst, 10 mol % loading
[10] = Cycling tests of Henry reaction; details: acetonitrile
[11] = pristine azobenzene; cited from earlier work
[12] = Henry reaction, 1 in acetonitrile, 2 in methanol
[13] = MeCN, Z-rich after 340 nm irradiation overnight
[14] = Toluene, Z-rich after 340 nm irradiation overnight
[15] = EtOAc, Z-rich after 340 nm irradiation overnight
[16] = MeOH, Z-rich after 340 nm irradiation overnight

CC(=O)CC(C)=O [Acetylacetone, acetylacetone]
ε340 nm ([1]; MeCN): 2.4 M⁻¹ cm⁻¹
ε340 nm ([1]; MeOH): 31.1 M⁻¹ cm⁻¹

CN(CCCNC(=O)c1ccc(C(=O)NCCCN(C)CCc2ccc(/N=N/c3ccccc3)cc2)cc1)CCc1ccc(/N=N/c2ccccc2)cc1 [Compound 1-E]
% E after irradiation at 430 nm (PSS) [2]: 82 % E
ε340 nm ([1]; MeCN): 24004 M⁻¹ cm⁻¹ and 24004.3 M⁻¹ cm⁻¹
ε430 nm ([1]; MeCN): 2336.5 M⁻¹ cm⁻¹

CN(CCCNC(=O)c1ccc(C(=O)NCCCN(C)CCc2ccc(/N=N\c3ccccc3)cc2)cc1)CCc1ccc(/N=N\c2ccccc2)cc1 [Compound 1-Z]
product yield [3, 12]: about 70%
rate constant kZ [3, 12]: 1.37e-05 s⁻¹
τ1/2 (thermal half-life of Z isomer) [4]: 199 h
ε340 nm ([1]; MeCN): 6780.1 M⁻¹ cm⁻¹
ε430 nm ([1]; MeCN): 2857.4 M⁻¹ cm⁻¹

CN(CCCNC(=O)c1ccc(C(=O)NCCCN(C)CCc2ccc(N=Nc3ccccc3)cc2)cc1)CCc1ccc(N=Nc2ccccc2)cc1 [Compound 1]
r=[Z]max/[E]max ([5]; MeCN (acetonitrile)): 10.4 and 10.3
Solubility ([5]; MeCN, E isomer (100% E)): 2.1 g/L and 2.9 mM
Solubility [5, 13]: 22 g/L and 30 mM
Isomer (% E) ([5]; MeCN): 12 % E
r=[Z]max/[E]max ([5]; Toluene): 2.8
Solubility ([5]; Toluene, E isomer (100% E)): 5.4 g/L and 7.5 mM
Solubility [5, 14]: 15 g/L and 21 mM
Isomer (% E) ([5]; Toluene): 17 % E
product yield of Z-rich catalyst compared to its E counterpart [6]: 2.4 fold
% Z by in-situ UV-induced E→Z isomerization in the reaction medium ([3]; Henry reaction mixture in acetonitrile, after 24-hour 340 nm irradiation): 48 % Z
rate constant kE-UV ([3]; Henry reaction, in-situ UV (340 nm) activated catalyst, 1 in acetonitrile, 2 in methanol): 4.24e-06 s⁻¹
% E after irradiation at 430 nm (PSS) [2]: 82 % E
% Z after irradiation at 340 nm (PSS) [2]: ~88 % Z
% Z drop in the suspension [7]: 75%
ideal solvent candidates for reversible solubility changes [8]: MeCN and toluene
τ1/2 (thermal half-life of Z isomer) [4]: 199 h
ΔG^‡ [4]: 25.67 kcal/mol
ΔH^‡ [4]: 23.97 kcal/mol
ΔS‡ [4]: −23.8 J mol^−1K^−1
product yield [9]: 82%
yield of product ([10]; 1st Henry reaction (16 hours)): 56%
yield of product ([10]; 2nd Henry reaction (16 hours)): 57%
yield of product ([10]; third Henry reaction (24 hours)): 70%

CN(CCCNC(=O)c1ccc(-c2ccc(C(=O)NCCCN(C)CCc3ccc(/N=N/c4ccccc4)cc3)cc2)cc1)CCc1ccc(/N=N/c2ccccc2)cc1 [Compound 2-E]
% E after irradiation at 430 nm (PSS) [2]: 84 % E
ε340 nm ([1]; MeOH): 25623 M⁻¹ cm⁻¹ and 25623.3 M⁻¹ cm⁻¹
ε430 nm ([1]; MeOH): 2375.3 M⁻¹ cm⁻¹

CN(CCCNC(=O)c1ccc(-c2ccc(C(=O)NCCCN(C)CCc3ccc(/N=N\c4ccccc4)cc3)cc2)cc1)CCc1ccc(/N=N\c2ccccc2)cc1 [Compound 2-Z]
product yield [3, 12]: 85%
rate constant kZ [3, 12]: 2.6e-05 s⁻¹
τ1/2 (thermal half-life of Z isomer) [4]: 84 h
ε340 nm ([1]; MeOH): 2937.1 M⁻¹ cm⁻¹
ε430 nm ([1]; MeOH): 3632.2 M⁻¹ cm⁻¹

CN(CCCNC(=O)c1ccc(-c2ccc(C(=O)NCCCN(C)CCc3ccc(N=Nc4ccccc4)cc3)cc2)cc1)CCc1ccc(N=Nc2ccccc2)cc1 [Compound 2]
r=[Z]max/[E]max ([5]; EtOAc): 6.0
Solubility ([5]; EtOAc, E isomer (100% E)): 2.4 g/L and 3.0 mM
Solubility [5, 15]: 14 g/L and 18 mM
Isomer (% E) ([5]; EtOAc): 14 % E
r=[Z]max/[E]max ([5]; MeOH (methanol)): 8.8
Solubility ([5]; MeOH, E isomer (100% E)): 1.9 g/L and 2.4 mM
Solubility [5, 16]: 17 g/L and 21 mM
Isomer (% E) ([5]; MeOH): 16 % E
rate constant kE-UV [3]: 1.16×10 ^−5 s^−1
% E after irradiation at 430 nm (PSS) [2]: 84 % E
% Z after irradiation at 340 nm (PSS) [2]: 84 % Z
% Z drop in the suspension [7]: 75%
ideal solvent candidates for reversible solubility changes [8]: MeOH and EtOAc
τ1/2 (thermal half-life of Z isomer) [4]: 84 h
ΔG^‡ [4]: 25.14 kcal/mol
ΔH^‡ [4]: 18 kcal/mol
ΔS‡ [4]: −99.7 J mol^−1K^−1

CN(CCCNC(=O)c1ccc2cc(C(=O)NCCCN(C)CCc3ccc(N=Nc4ccccc4)cc3)ccc2c1)CCc1ccc(N=Nc2ccccc2)cc1 [Compound 3]
r=[Z]max/[E]max ([5]; Acetone): 5.7
Solubility ([5]; Acetone, E isomer (100% E)): 3.8 g/L and 4.9 mM
Isomer (% E) ([5]; Acetone): 14 % E
r=[Z]max/[E]max ([5]; MeOH (methanol)): 4.0
Solubility ([5]; MeOH, E isomer (100% E)): 3.9 g/L and 5.0 mM
Solubility [5, 16]: 16 g/L and 20 mM
Isomer (% E) ([5]; MeOH): 27 % E
ideal solvent candidates for reversible solubility changes [8]: MeOH and acetone

CN(CCCNC(=O)CCCC#CC#CCCCC(=O)NCCCN(C)CCc1ccc(N=Nc2ccccc2)cc1)CCc1ccc(N=Nc2ccccc2)cc1 [Compound 4]
r=[Z]max/[E]max ([5]; EtOAc): 9.4
Solubility ([5]; EtOAc, E isomer (100% E)): 2.6 g/L and 3.3 mM
Solubility [5, 15]: 24 g/L and 31 mM
Isomer (% E) ([5]; EtOAc): 23 % E
r=[Z]max/[E]max ([5]; MeCN (acetonitrile)): 10.0
Solubility ([5]; MeCN, E isomer (100% E)): 3.3 g/L and 4.3 mM
Solubility [5, 13]: 33 g/L and 43 mM
Isomer (% E) ([5]; MeCN): 9 % E
r=[Z]max/[E]max ([5]; Toluene): 13.9
Solubility ([5]; Toluene, E isomer (100% E)): 2.6 g/L and 3.3 mM
Solubility [5, 14]: 36 g/L and 46 mM
Isomer (% E) ([5]; Toluene): 55 % E
ideal solvent candidates for reversible solubility changes [8]: no solvent is ideal

O=Cc1ccc([N+](=O)[O-])cc1 [Nitrobenzaldehyde, 4-nitrobenzaldehyde]
ε340 nm ([1]; MeCN): 323.3 M⁻¹ cm⁻¹
ε340 nm ([1]; MeCN, listed as 4-nitrobenzaldehyde): 323 M⁻¹ cm⁻¹
ε340 nm ([1]; MeOH): 312.5 M⁻¹ cm⁻¹

CC[N+](=O)[O-] [Nitroethane, nitroethane]
ε340 nm ([1]; MeCN): 0.3 M⁻¹ cm⁻¹
ε340 nm ([1]; MeOH): 1.3 M⁻¹ cm⁻¹

O=[N+]([O-])/C=C/c1ccccc1 [Nitrostyrene, trans-β-nitrostyrene]
ε340 nm ([1]; MeCN): 11327.3 M⁻¹ cm⁻¹
ε340 nm ([1]; MeCN, listed as trans-β-nitrostyrene): 11327 M⁻¹ cm⁻¹
ε340 nm ([1]; MeOH): 15390.7 M⁻¹ cm⁻¹

c1ccc(N=Nc2ccccc2)cc1 [azobenzene]
% E at 430 nm (photoswitching property) [11]: 83 % E
